# Assay results reported in ChEMBL document CHEMBL1201862, “PubChem BioAssay data set” (2004).
#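 Briefly, cells in 96-well plates were exposed to five compound concentrations for 48 h, and endpoints were estimated by linear interpolation. GI50 is the concentration that inhibits growth by half.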 Calls of active or inactive are those of the source. Rule as the data show it: active = GI50 up to about 1.1 µM and inactive = higher.
# Columns and labels:
# Test in all cases: growth of human tumour cells (NCI), 48 h
# ACHN = system: ACHN
# HOP-92 = system: HOP-92
# U-251 = system: U-251
# MCF7 = system: MCF7
# MDA-MB-231 = system: MDA-MB-231
# OVCAR-4 = system: OVCAR-4
# SF-268 = system: SF-268
# Malme-3M = system: Malme-3M
# SK-MEL-28 = system: SK-MEL-28
# SK-MEL-5 = system: SK-MEL-5
# SR = system: SR
# KM12 = system: KM12
# NCI-H522 = system: NCI-H522
# HT-29 = system: HT-29
# NCI-H460 = system: NCI-H460
# DU-145 = system: DU-145
# Hs-578T = system: Hs-578T
# CCRF-CEM = system: CCRF-CEM
# OVCAR-3 = system: OVCAR-3
# SF-539 = system: SF-539
Structure (SMILES),GI50 (ACHN),GI50 (HOP-92),GI50 (U-251),GI50 (MCF7),GI50 (MDA-MB-231),GI50 (OVCAR-4),GI50 (SF-268),GI50 (Malme-3M),GI50 (SK-MEL-28),GI50 (SK-MEL-5),GI50 (SR),GI50 (KM12),GI50 (NCI-H522),GI50 (HT-29),GI50 (NCI-H460),GI50 (DU-145),GI50 (Hs-578T),GI50 (CCRF-CEM),GI50 (OVCAR-3),GI50 (SF-539)
COc1cc2c(cc1OC)C1CN3CCCC3C(O)C1c1cc(OC)c(OC)cc1-2 (configuration not stated),> 100 µM (inactive),> 100 µM (inactive),> 100 µM (inactive),> 100 µM (inactive),> 100 µM (inactive),> 100 µM (inactive),> 100 µM (inactive),> 100 µM (inactive),> 100 µM (inactive),> 100 µM (inactive),> 100 µM (inactive),> 100 µM (inactive),> 100 µM (inactive),> 100 µM (inactive),> 100 µM (inactive),> 100 µM (inactive),> 100 µM (inactive),69.3 µM (inactive),,
BrCc1ccc(CBr)c2c1-c1c(CBr)ccc3ccc(CBr)c-2c13,> 100 µM (inactive),> 100 µM (inactive),49.8 µM (inactive),> 100 µM (inactive),> 100 µM (inactive),> 100 µM (inactive),> 100 µM (inactive),> 100 µM (inactive),> 100 µM (inactive),,46.2 µM (inactive),> 100 µM (inactive),> 100 µM (inactive),> 100 µM (inactive),> 100 µM (inactive),> 100 µM (inactive),53.2 µM (inactive),,> 100 µM (inactive),56.9 µM (inactive)
NNC(=O)CSc1nnc(CCCCCCCCc2nnc(SCC(=O)NN)o2)o1,> 100 µM (inactive),> 100 µM (inactive),> 100 µM (inactive),> 100 µM (inactive),> 100 µM (inactive),> 100 µM (inactive),> 100 µM (inactive),> 100 µM (inactive),> 100 µM (inactive),> 100 µM (inactive),> 100 µM (inactive),> 100 µM (inactive),> 100 µM (inactive),> 100 µM (inactive),> 100 µM (inactive),> 100 µM (inactive),> 100 µM (inactive),> 100 µM (inactive),,
CCOC1Oc2ccccc2-c2nc(N)ncc21 (configuration not stated),59.4 µM (inactive),69 µM (inactive),65.6 µM (inactive),37.4 µM (inactive),99.3 µM (inactive),> 100 µM (inactive),44.1 µM (inactive),,,42.8 µM (inactive),24.9 µM (inactive),39.4 µM (inactive),23.4 µM (inactive),34.8 µM (inactive),24.9 µM (inactive),68.4 µM (inactive),29.2 µM (inactive),36.8 µM (inactive),57 µM (inactive),33.4 µM (inactive)
Oc1ccc(CCc2cc(O)cc(O)c2)cc1 [DIHYDRORESVERATROL],79.4 µM (inactive),> 100 µM (inactive),> 100 µM (inactive),> 100 µM (inactive),23.7 µM (inactive),> 100 µM (inactive),> 100 µM (inactive),> 100 µM (inactive),> 100 µM (inactive),> 100 µM (inactive),> 100 µM (inactive),> 100 µM (inactive),> 100 µM (inactive),> 100 µM (inactive),> 100 µM (inactive),> 100 µM (inactive),> 100 µM (inactive),,> 100 µM (inactive),> 100 µM (inactive)
Cc1ccc(/C=C2/N/C(=N\N=C/C(O)C(O)C(O)C(O)CO)NC2=O)cc1 (configuration not stated),> 100 µM (inactive),> 100 µM (inactive),> 100 µM (inactive),> 100 µM (inactive),> 100 µM (inactive),,> 100 µM (inactive),> 100 µM (inactive),> 100 µM (inactive),> 100 µM (inactive),> 100 µM (inactive),> 100 µM (inactive),> 100 µM (inactive),> 100 µM (inactive),> 100 µM (inactive),> 100 µM (inactive),> 100 µM (inactive),95.3 µM (inactive),> 100 µM (inactive),> 100 µM (inactive)
O=C(O)C1[C@@H](C(=O)O)C1(Br)CBr (some centres not stated),> 100 µM (inactive),> 100 µM (inactive),> 100 µM (inactive),> 100 µM (inactive),> 100 µM (inactive),> 100 µM (inactive),> 100 µM (inactive),,> 100 µM (inactive),> 100 µM (inactive),> 100 µM (inactive),> 100 µM (inactive),> 100 µM (inactive),> 100 µM (inactive),> 100 µM (inactive),> 100 µM (inactive),> 100 µM (inactive),,> 100 µM (inactive),> 100 µM (inactive)
CC(=O)OCC1OC(n2c(-c3ccccc3)c(/N=N/c3ccccc3)c(C)c(C#N)c2=S)C(OC(C)=O)C(OC(C)=O)C1OC(C)=O (configuration not stated),> 100 µM (inactive),28.4 µM (inactive),> 100 µM (inactive),> 100 µM (inactive),> 100 µM (inactive),> 100 µM (inactive),> 100 µM (inactive),> 100 µM (inactive),> 100 µM (inactive),> 100 µM (inactive),> 100 µM (inactive),> 100 µM (inactive),,> 100 µM (inactive),> 100 µM (inactive),> 100 µM (inactive),> 100 µM (inactive),> 100 µM (inactive),> 100 µM (inactive),> 100 µM (inactive)
CC(=O)OCC1OC(O[C@H]2C=C[C@@H](C(=O)OCc3ccccc3)n3c(=O)n(-c4ccccc4)c(=O)n32)C(OC(C)=O)C(OC(C)=O)C1OC(C)=O (some centres not stated),1.71 µM (inactive),1.96 µM (inactive),2.14 µM (inactive),1.17 µM (inactive),1.89 µM (inactive),2.54 µM (inactive),1.78 µM (inactive),,1.86 µM (inactive),1.14 µM (inactive),1.3 µM (inactive),3.27 µM (inactive),0.986 µM (active),1.56 µM (inactive),1.58 µM (inactive),2.61 µM (inactive),1.99 µM (inactive),0.851 µM (active),1.79 µM (inactive),1.82 µM (inactive)
O=C(Nc1ccccc1C(=O)NCc1ccccc1)/C(=C/c1ccccc1)NC(=O)c1ccccc1,> 100 µM (inactive),> 100 µM (inactive),> 100 µM (inactive),> 100 µM (inactive),> 100 µM (inactive),49.3 µM (inactive),> 100 µM (inactive),,> 100 µM (inactive),> 100 µM (inactive),> 100 µM (inactive),> 100 µM (inactive),> 100 µM (inactive),> 100 µM (inactive),,> 100 µM (inactive),63.1 µM (inactive),> 100 µM (inactive),> 100 µM (inactive),> 100 µM (inactive)
Cc1cc(Cl)ccc1NC(=O)/C(Cl)=C(/Cl)C(=O)O,19.3 µM (inactive),22.1 µM (inactive),19 µM (inactive),21.4 µM (inactive),21.7 µM (inactive),,52.8 µM (inactive),,22.1 µM (inactive),50.7 µM (inactive),15.1 µM (inactive),31 µM (inactive),15.4 µM (inactive),22.9 µM (inactive),> 100 µM (inactive),23.9 µM (inactive),26.4 µM (inactive),17.3 µM (inactive),18.4 µM (inactive),23 µM (inactive)
